Data reported in patent publication US7625951B2, “Stimuli-responsive hydrogel microdomes integrated with genetically engineered proteins for high-throughput screening of pharmaceuticals” (University of Kentucky Research Foundation, priority 2000, dated 2009).

Key:
[1] = tested on: calmodulin (CaM); assay: Swelling response of CaM-integrated hydrogel / hydrogel microdomes to free ligand
From the text: The hydrogel can swell when chlorpromazine (CPZ) is integrated into the hydrogel polymer network because immobilized phenothiazine is displaced from CaM by free CPZ. Phenothiazine is released from its CaM binding site and replaced by CPZ creating a relaxation of polymer chains. This relaxation allows more water to permeate the porous hydrogel polymer network, thus hydrogel swelling occurs.
In the first stage, CaM is bound to a phenothiazine. In the presence of CPZ, competitive binding occurs, and the non-covalent crosslinking is released creating expansion of the hydrogel network.
While the collective array can be used to visually screen for an analyte, the individually addressable microdome array is analyzed using a laser screening system to detect the change in height of the microdomes. The initial size of the hydrogel microdome, including the height of the microdome, is determined using the stylus profilometer. […] The microdome array 22 on substrate 24 is placed on a stage micrometer 26. A light generating means 14 such as a laser diode generates a light beam 16 that is reflected off the top of microdome 22 to produce a diffracted light 18 that is captured by photodiode 20. By positioning the microdome 22 on the stage micrometer 26, the initial height of the microdome can be determined by the amount of light deflected off the top of the microdome 22 by counting the number of photons detected by the photodiode 20.
After the initial reading, the microdome is not moved. A test solution is applied to the microdome for about 1 to 3½ minutes and then is removed and if the microdome swells, the amount of photons emitted off the microdome will change due to the swelling. The swell time for the hydrogel microdome is about 3½ minutes after the solution is applied to the microdome. […] After the test, the stage micrometer can be adjusted to bring another near by microdome in the array into the sensing area.

[2] = tested on: calmodulin (CaM109); assay: Fluorescence assay of conformation change in fluorophore (MDCC)-labeled CaM109 monomer and dimer; assay type: binding; details: added to labeled calmodulin molecules that had already bound calcium
From the text: In order to measure the extent of conformation change in CaM molecules in response to calcium and phenothiazine binding, a system has been developed in which a fluorophore is conjugated to a cysteine residue that had been inserted at amino acid 109 of wild type CaM using methods well known to those skilled in the art. This CaM mutant was called CaM109. The fluorescence of the fluorophore increases as the conformation of CaM changes in the presence of calcium.
Since wild-type CaM contains no cysteines, the addition of a cysteine to CaM at a desired position within the protein, allows for labeling of the protein at this position. Such labeling was done using a thiol-reactive fluorescent label called N-[2-(1-maleimidyl)ethyl]-7-(diethylamino)coumarin-3-carboxamide, or MDCC.
The fluorescence response of MDCC-labeled, CaM109 molecules was recorded in the absence and presence of 3×10^6 M Ca^++. The Ca^++ concentration was controlled by EGTA at pH 8.0, and the free Ca^++ concentrations were calculated using the software program Chelator (Haugland, 1996, Handbook of Fluorescent Probes and Research Chemicals, 6th edition, Molecular Probes, Eugene, Oreg., p. 52).

## CN(C)CCCN1c2ccccc2Sc2ccc(Cl)cc21 [chlorpromazine]
[1]; displacement of immobilized phenothiazine from the CaM binding site in the hydrogel
  binding affinity for CaM (relative): higher binding affinity for CaM than phenothiazine
[1]; microdomes on polymethyl methacrylate or silanized glass slides
  swelling of protein-hydrogel microdomes: swelling occurred
[1]; phenothiazine derivative replaced with 4-phenyl-1-butene, swelling irreversible, FIG. 17
  swelling of CaM hydrogel with immobilized phenyl ligand (4-phenyl-1-butene): the hydrogel swells

## c1ccc2c(c1)Nc1ccccc1S2 [phenothiazine]
[2]
  fluorescence quenched: 100%
